Data published in PMC12002112, “NMR Solution Structure of the N‐Terminal GSPII Domain from the Thermus Thermophilus Traffic ATPase PilF and Reconstruction of its c‐di‐GMP Binding Capability” (Chembiochem, 2025).
Values joined by “and” are separate entries in the source; they are usually repeats but may differ in a detail not shown here. Equal entries are not always repeated.

Experiments:
[1] = target: T1, PilF1–889 (full‐length PilF) (Thermus thermophilus, UniProt Q5SLC9); assay: ITC c‐di‐GMP binding, full‐length PilF; settings: 20 °C
T1 sequence (Q5SLC9 1-889): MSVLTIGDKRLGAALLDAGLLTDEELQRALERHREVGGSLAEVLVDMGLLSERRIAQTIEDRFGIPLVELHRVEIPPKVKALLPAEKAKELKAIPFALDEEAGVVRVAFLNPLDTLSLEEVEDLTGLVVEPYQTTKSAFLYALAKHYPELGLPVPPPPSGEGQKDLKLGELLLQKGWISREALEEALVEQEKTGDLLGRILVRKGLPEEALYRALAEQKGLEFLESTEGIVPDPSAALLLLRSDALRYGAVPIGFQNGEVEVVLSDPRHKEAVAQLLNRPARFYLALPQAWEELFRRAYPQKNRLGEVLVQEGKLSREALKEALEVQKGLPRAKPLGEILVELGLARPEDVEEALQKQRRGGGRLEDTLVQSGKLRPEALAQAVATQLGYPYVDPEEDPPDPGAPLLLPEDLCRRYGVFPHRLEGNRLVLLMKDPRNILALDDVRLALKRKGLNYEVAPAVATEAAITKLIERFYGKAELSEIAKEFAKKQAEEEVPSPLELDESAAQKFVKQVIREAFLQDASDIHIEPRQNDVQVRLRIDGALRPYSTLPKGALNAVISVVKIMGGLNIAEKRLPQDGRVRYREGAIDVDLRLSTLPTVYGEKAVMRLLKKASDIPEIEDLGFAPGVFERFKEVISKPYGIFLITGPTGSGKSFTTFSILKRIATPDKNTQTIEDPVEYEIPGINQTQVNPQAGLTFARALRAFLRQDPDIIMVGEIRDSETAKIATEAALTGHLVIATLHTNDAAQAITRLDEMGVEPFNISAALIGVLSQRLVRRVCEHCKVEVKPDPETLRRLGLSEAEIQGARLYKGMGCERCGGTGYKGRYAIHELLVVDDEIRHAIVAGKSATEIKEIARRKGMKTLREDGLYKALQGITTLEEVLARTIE

PilF1–154 (GSPII‐A) = assay: ITC c‐di‐GMP binding, isolated GSPII‐A domain; design: species or system Thermus thermophilus; settings: isolated PilF1–154
Procedure: (§1) The c‐di‐GMP binding capabilities of the various PilF1–154, PilF1–65 and PilF9–65 constructs were characterized by isothermal titration calorimetry (ITC) measurements in three independent titrations for each construct with detectable binding to c‐di‐GMP. All ITC‐measurements were carried out in 50 mM Tris‐HCl pH 7.5, 200 mM sodium chloride, 1 mM β‐mercaptoethanol at 20 °C using a MicroCal iTC200 instrument (Malvern Pananalytical, UK). In total 40 μl c‐di‐GMP was titrated to 270 μl protein after an initial delay of 120 s in 20 injections while stirring the sample with 750 rpm. The first injection of 0.2 μl c‐di‐GMP in 0.4 s was followed by 19 successive injections of 2 μl in 4 s separated by a 180 s delay using a reference power of 11 μcal^−1. The feedback mode was set to high. Protein and c‐di‐GMP concentrations ranged from 30 μM to 100 μM and 300 μM to 1000 μM, respectively, and were adjusted to the respective binding affinities of the corresponding constructs to optimize measurement precision. Processing of the thermograms was carried out with Origin 7.0 (OriginLab) using a one‐site binding model. An overview of all ITC measurements is given in Supplementary Table 1.

PilF1–65 F63Y [2] = assay: ITC c‐di‐GMP binding, N‐terminal subdomain; design: species or system Thermus thermophilus
Procedure: as §1

[3] = target: T2, PilF1–65 F63Y H33Q S39R A41G I55L I59L R62Q (PilF1–65 F63Y mut6) (Thermus thermophilus, UniProt Q5SLC9, A41G/F63Y/H33Q/I55L/I59L/R62Q/S39R); assay: ITC c‐di‐GMP binding, PilF1–65 F63Y mut6
T2 sequence (Q5SLC9 1-65 H33Q/S39R/A41G/I55L/I59L/R62Q/F63Y): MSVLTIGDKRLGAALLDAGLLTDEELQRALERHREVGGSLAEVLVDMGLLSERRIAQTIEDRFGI
Procedure: as §1

[4] = target: T3, PilF9–65 F63Y H33Q S39R A41G I55L I59L R62Q (PilF9–65 F63Y mut6) (Thermus thermophilus, UniProt Q5SLC9, A41G/F63Y/H33Q/I55L/I59L/R62Q/S39R); assay: ITC c‐di‐GMP binding, PilF9–65 F63Y mut6
T3 sequence (Q5SLC9 9-65 H33Q/S39R/A41G/I55L/I59L/R62Q/F63Y): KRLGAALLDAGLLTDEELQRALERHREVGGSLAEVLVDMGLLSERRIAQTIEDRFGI
Procedure: as §1

[5] = target: T4, PilF9–65 F63Y H33Q S39R A41G R62Q (Thermus thermophilus, UniProt Q5SLC9, A41G/F63Y/H33Q/R62Q/S39R); assay: ITC c‐di‐GMP binding, PilF9–65 F63Y H33Q S39R A41G R62Q; settings: 20 °C
T4 sequence (Q5SLC9 9-65 H33Q/S39R/A41G/R62Q/F63Y): T3 sequence (Q5SLC9 9-65 H33Q/S39R/A41G/I55L/I59L/R62Q/F63Y)
Procedure: as §1

[6] = target: T5, PilF9–65 F63Y H33Q S39R R62Q (Thermus thermophilus, UniProt Q5SLC9, F63Y/H33Q/R62Q/S39R); assay: ITC c‐di‐GMP binding, PilF9–65 F63Y H33Q S39R R62Q; settings: 20 °C
T5 sequence (Q5SLC9 9-65 H33Q/S39R/R62Q/F63Y): T3 sequence (Q5SLC9 9-65 H33Q/S39R/A41G/I55L/I59L/R62Q/F63Y)
Procedure: as §1

PilF9–65 F63Y H33Q R62Q = assay: ITC c‐di‐GMP binding, PilF9–65 F63Y H33Q R62Q; design: species or system Thermus thermophilus; settings: S39 reintroduced
Procedure: as §1

PilF1–154 = assay: NMR titration with c‐di‐GMP, PilF1–154; type: binding, Thermus thermophilus; settings: 10 equivalents of c‐di‐GMP, 45 °C
Procedure: (§2) For NMR experiments, all PilF1–154, PilF1–65 and PilF9–65 samples were prepared in a buffer containing 50 mM BisTris‐HCl pH 5.8, 200 mM NaCl, 1 mM β‐mercaptoethanol with the addition of 5 % (v/v) D2O. 200 μM 2,2‐dimethyl‐2‐silapentane‐5‐sulfonic acid (DSS) was used to directly reference the ^1H chemical shifts internally. With the appropriate conversion factors, the heteronuclear ^13C, ^15N and ^31P chemical shifts were referenced indirectly.[73] All spectra were processed and referenced with Bruker TopSpin™ versions 3.5 and 4.0.7. Chemical shifts were assigned in CARA.[74] NMR‐spectra were acquired on Bruker AVANCE 600, 700, 800, 900 and 950 MHz spectrometers equipped with cryogenic triple resonance probes at 45 °C for PilF1–154 constructs and at 20 °C for the PilF1–65 and the PilF9–65 constructs.
(§3) NMR titration experiments were carried out as ligand binding assays with uniformly ^15N labeled protein samples from 50 μM to 100 μM and unlabeled c‐di‐GMP. A series of ^15N‐HSQC, ^1H,^15N‐SOFAST‐HMQC or ^15N‐BEST‐TROSY‐HSQC spectra were recorded with increasing c‐di‐GMP concentrations (up to 1.4 mM) and chemical shift changes were evaluated with TopSpin™ 4.0.7.

[7] = test system: PilF1–154 H33Q S39R A41G I55L I59L R62Q; assay: NMR titration with c‐di‐GMP, MshEN‐like PilF1–154 construct; type: binding, Thermus thermophilus; settings: 15 equivalents of c‐di‐GMP
Procedure: as §2, §3

PilF1–65 F63Y [8] = assay: NMR titration with c‐di‐GMP, PilF1–65 F63Y; type: binding, Thermus thermophilus
Procedure: as §2, §3

[9] = target: T2, PilF1–65 F63Y H33Q S39R A41G I55L I59L R62Q (PilF1–65 F63Y mut6); assay: NMR titration with c‐di‐GMP, PilF1–65 F63Y mut6; type: binding; settings: high excess of ligand (10fold), 20 °C
Procedure: as §2, §3

[10] = target: T5, PilF9–65 F63Y H33Q S39R R62Q; assay: NMR titration with c‐di‐GMP, PilF9–65 F63Y H33Q S39R R62Q; type: binding; settings: high excess of the ligand (15fold), 20 °C
Procedure: as §2, §3

MshEN = target: MshEN; design: method as in PMID 27578558; settings: monomeric c‐di‐GMP; read-out: KD (affinity) for MshEN; cited from earlier work

Question: Which results are given for `Nc1nc2c(ncn2C2OC3COP(=O)(O)OC4C(COP(=O)(O)OC3C2O)OC(n2cnc3c(=O)[nH]c(N)nc32)C4O)c(=O)[nH]1` (centres unmarked) [c‐di‐GMP, 3’→5’ cyclic dimeric guanosine monophosphate]?
Answer: ΔH (binding event 1) ([1]; event 1): -11.763 ± 0.78 kcal/mol; ΔS (binding event 1) ([1]; event 1): -10.4 ± 2.7 cal/mol/deg; ΔH (binding event 2) ([1]; event 2): -15.683 ± 0.97 kcal/mol; ΔS (binding event 2) ([1]; event 2): -16.5 ± 2.2 cal/mol/deg; Kd ([1]; pH 7.5, PilF1–889, binding event 1, read-out: KD1 (first binding event)): 324 nM; N (binding event 1) ([1]; stoichiometry, event 1): 0.72 ± 0.1; N (binding event 2) ([1]; stoichiometry, event 2): 0.59 ± 0.03; c‐di‐GMP binding in ITC (PilF1–154 (GSPII‐A)): did not show any sign of c‐di‐GMP binding; c‐di‐GMP binding in ITC (PilF1–65 F63Y [2]): not detectable; N ([3]; ITC, 20 °C): 0.6 ± 0.2; ΔH ([3]; ITC, 20 °C): -1.342 ± 0.513 kcal/mol; ΔS ([3]; ITC, 20 °C): 17.1 ± 2.3 cal/mol/deg; Kd ([3]; ITC, 20 °C, pH 7.5, PilF1–65 F63Y mut6): 13000 ± 2000 nM; difference in the free energy of binding vs MshEN ([3]; at 20° C): ~ 1.9 kcal/mol; difference in the free energy of binding vs N‐terminal subdomain (residue 1–62) of MshEN ([3]; at 20° C): ~2.3 kcal/mol; N ([4]; ITC, 20 °C): 1.2 ± 0.1; ΔH ([4]; ITC, 20 °C): -12.953 ± 0.441 kcal/mol; ΔS ([4]; ITC, 20 °C): -17.9 ± 1.4 cal/mol/deg; Kd ([4]; ITC, 20 °C, pH 7.5, PilF9–65 F63Y mut6): 695 ± 42 nM; difference in the free energy of binding vs PilF1–65 F63Y mut6 ([4]; at 20° C): 1.6 kcal/mol; N [5]: 0.8 ± 0.1; ΔH [5]: -10.127 ± 0.499 kcal/mol; ΔS [5]: -6.4 ± 1.7 cal/mol/deg; Kd ([5]; pH 7.5, PilF9–65 F63Y H33Q S39R A41G R62Q): 1800 ± 300 nM; N [6]: 0.7 ± 0.1; ΔH [6]: -9.574 ± 0.243 kcal/mol; ΔS [6]: -3.6 ± 0.7 cal/mol/deg; Kd ([6]; pH 7.5, PilF9–65 F63Y H33Q S39R R62Q): 19000 ± 6000 nM; c‐di‐GMP binding activity in ITC (PilF9–65 F63Y H33Q R62Q): complete loss of c‐di‐GMP binding activity; chemical shift changes on adding c‐di‐GMP (PilF1–154): does not cause any chemical shift changes; c‐di‐GMP binding in NMR‐titration [7]: no c‐di‐GMP binding; c‐di‐GMP binding in NMR titration (PilF1–65 F63Y [8]): not detectable; chemical shift changes on adding c‐di‐GMP [9]: large chemical shift changes; c‐di‐GMP binding in NMR titration [10]: saturated ligand binding; Kd (MshEN): 500 nM and ~500 nM
